Data published in patent US7972815B2, “Method of producing sugar chain using human G4 polypeptide” (Kyowa Hakko Kirin Co., Ltd., priority 1999, dated 2011).
Where two headings read alike, the source gives them in different places.

Legend:
β3GnT = molecular target: T1, β3GnT (Homo sapiens, UniProt Q9NY97); conditions: reported values, Proc. Natl. Acad. Sci. USA, 96, 406 (1999), cited from earlier work
T1 sequence (Q9NY97 1-397): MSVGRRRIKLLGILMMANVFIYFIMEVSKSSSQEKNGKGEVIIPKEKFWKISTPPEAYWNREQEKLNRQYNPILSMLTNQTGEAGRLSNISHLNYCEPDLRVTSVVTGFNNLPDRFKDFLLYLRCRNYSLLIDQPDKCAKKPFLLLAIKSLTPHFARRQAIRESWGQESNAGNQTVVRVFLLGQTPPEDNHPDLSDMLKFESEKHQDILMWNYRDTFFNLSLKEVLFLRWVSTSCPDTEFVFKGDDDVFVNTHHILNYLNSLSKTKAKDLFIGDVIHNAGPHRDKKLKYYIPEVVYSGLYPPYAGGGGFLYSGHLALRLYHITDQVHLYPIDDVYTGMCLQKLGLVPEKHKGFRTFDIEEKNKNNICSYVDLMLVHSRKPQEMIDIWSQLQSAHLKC

[1] = molecular target: T2, β1,3-N-acetylglucosaminyl transferase (G3) (Homo sapiens, UniProt Q9NY97); test: Substrate specificity of G3 with pyridylaminated oligosaccharides; format: biochemical; conditions: 2 hours; for Relative activity (%): pyridylaminated substrate, 37° C., activity on LNnT defined as 100%
T2 construct: made in house; host or cells: Sf21 insect cells infected with recombinant baculovirus from pVL1393-F2G3
T2 sequence (Q9NY97 31-397): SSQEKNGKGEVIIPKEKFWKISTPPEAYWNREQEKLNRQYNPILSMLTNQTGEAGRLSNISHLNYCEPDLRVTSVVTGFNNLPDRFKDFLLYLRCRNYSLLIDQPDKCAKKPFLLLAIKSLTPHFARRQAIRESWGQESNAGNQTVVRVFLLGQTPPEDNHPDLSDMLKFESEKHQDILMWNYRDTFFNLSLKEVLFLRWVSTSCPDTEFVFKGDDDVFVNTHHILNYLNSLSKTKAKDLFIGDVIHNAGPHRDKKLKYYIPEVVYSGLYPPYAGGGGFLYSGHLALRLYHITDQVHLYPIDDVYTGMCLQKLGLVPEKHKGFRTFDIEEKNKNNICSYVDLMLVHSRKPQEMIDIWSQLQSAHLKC
Experimental: The method shown in Example 8 was used as the activity measuring method. Specifically, after the reaction at 37° C. for 14.5 hours in 30 μl of an assay solution [200 mmol/l of MOPS (pH 7.5), 20 mmol/l of UDP-GlcNAc (SIGMA), 20 mmol/l of MnCl2, 50 μmol/l of pyridylaminated sugar chain substrate and 15 μl of the above eluate], products were detected by HPLC. As substrates, LNnT, lacto-N-tetraose (Galβ1-3GlcNAcβ1-3Galβ1-4Glc, hereinafter referred to as “LNT”), lacto-N-fucopentaose II (Galβ1-3(Fucα1-4)GlcNAcβ1-3Galβ1-4Glc, hereinafter referred to as “LNFP-II”), lacto-N-fucopentaose III (Galβ1-4(Fucα1-3)GlcNAcβ1-3Galβ1-4Glc, hereinafter referred to as “LNFP-III”), lacto-N-fucopentaose V (Galβ1-3GlcNAcβ1-3Galβ1-4(Fucα1-3)Glc, hereinafter referred to as “LNFP-V”) and lacto-N-difucohexaose II (Galβ1-3(Fucα1-4)GlcNAcβ1-3Galβ1-4(Fucα1-3)Glc, hereinafter referred to as “LNDFH-II”) (all manufactured by Oxford Glycosystems) were used after fluorescently labeling them with aminopyridine. Fluorescence labeling of these substrates were carried out in accordance with the usual method [Agric. Biol. Chem., 54, 2169 (1990)].
For each substrate, the reaction was carried using the assay solution with or without UDP-GlcNAc (sugar donor), and then HPLC was carried out and peaks appeared only in the assay solution containing UDP-GlcNAc were defined as products.
The assay solution after completion of the reaction was treated at 100° C. for 5 minutes and then centrifuged at 10,000×g for 5 minutes, and a portion (5 μl) of the thus obtained supernatant was applied to HPLC.
The HPLC was carried out by using TSK-gel ODS-80Ts column (4.6×300 mm; Tosoh); 0.02 mol/l ammonium acetate buffer (pH 4.0) was used as the eluate at an elution temperature of 50° C. and at a flow rate of 0.5 ml/min.
Products were detected by using a fluorescence spectrum photometer FP-920 (JASCO Corporation) (excitation wavelength 320 nm, radiation wavelength 400 nm).
Substrate specificity of a β1,3-N-acetylglucosaminyl transferase (G3) was examined using the FLAG peptide-fused G3 polypeptide purified in Example 14.
Substrate specificity of the FLAG peptide-fused G3 polypeptide was examined by the method shown in Example 11(1). The reaction was carried out at 37° C. for 2 hours.

| SMILES | Relative activity (%) β3GnT (β3GnT; Table 4) [%] | Relative activity (%) β3GnT (β3GnT; Table 6) [%] | conversion efficiency of the substrate into the product ([1]; pyridylaminated LNnT as substrate) [%] | Relative activity (%) [1] [%] |
| --- | --- | --- | --- | --- |
| CC(=O)N[C@H]1[C@H](O[C@H]2[C@@H](O)[C@@H](CO)O[C@@H](O[C@H]3[C@H](O)[C@@H](O)C(O)O[C@@H]3CO)[C@@H]2O)O[C@H](CO)[C@@H](O[C@@H]2O[C@H](CO)[C@H](O)[C@H](O)[C@H]2O)[C@@H]1O (mixture of isomers) [LNnT, lacto-N-neotetraose] | 100 | 100 | 82.5 | 100 |
| CC(=O)N[C@H]1[C@H](O[C@H]2[C@@H](O)[C@@H](CO)O[C@@H](O[C@H]3[C@H](O)[C@@H](O)C(O)O[C@@H]3CO)[C@@H]2O)O[C@H](CO)[C@@H](O)[C@@H]1O[C@@H]1O[C@H](CO)[C@H](O)[C@H](O)[C@H]1O (stereo partly shown) [LNT, lacto-N-tetraose] | 6 | 6 |  | 3.7 |
